Patent US20130225633A1, “PHENYL HETEROCYCLOALKYL GLUCOCORTICOID RECEPTOR MODULATORS” (Corcept Therapeutics, Inc., priority 2012, published 2013)
pKi: −log10 of the molar value.

Columns and labels:
human recombinant GR = molecular target: T1, human recombinant GR (Homo sapiens, UniProt P04150); assay: Human GR fluorescence polarisation (FP) binding assay (Example 23)
T1 construct: purchased PanVera P2812
T1 sequence (P04150 1-777): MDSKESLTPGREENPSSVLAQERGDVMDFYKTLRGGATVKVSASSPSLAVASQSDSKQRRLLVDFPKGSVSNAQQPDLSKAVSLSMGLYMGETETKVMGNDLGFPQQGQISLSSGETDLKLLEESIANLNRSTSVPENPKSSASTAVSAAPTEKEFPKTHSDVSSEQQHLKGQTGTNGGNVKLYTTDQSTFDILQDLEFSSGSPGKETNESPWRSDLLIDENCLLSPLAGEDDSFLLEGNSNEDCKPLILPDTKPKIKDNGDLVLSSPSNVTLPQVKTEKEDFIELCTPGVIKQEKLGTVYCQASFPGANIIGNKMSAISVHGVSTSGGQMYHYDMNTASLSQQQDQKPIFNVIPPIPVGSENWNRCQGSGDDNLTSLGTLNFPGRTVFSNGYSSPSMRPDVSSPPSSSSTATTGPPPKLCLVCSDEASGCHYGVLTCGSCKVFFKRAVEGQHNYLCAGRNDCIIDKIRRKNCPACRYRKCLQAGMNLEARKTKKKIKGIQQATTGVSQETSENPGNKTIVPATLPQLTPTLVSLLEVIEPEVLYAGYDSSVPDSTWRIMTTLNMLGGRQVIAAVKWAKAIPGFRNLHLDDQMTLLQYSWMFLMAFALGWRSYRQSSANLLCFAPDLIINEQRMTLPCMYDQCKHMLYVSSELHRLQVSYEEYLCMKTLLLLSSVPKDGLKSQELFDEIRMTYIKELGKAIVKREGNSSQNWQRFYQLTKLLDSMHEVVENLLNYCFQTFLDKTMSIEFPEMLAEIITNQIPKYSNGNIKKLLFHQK
Description: The following is a description of a FP assay for measuring compound inhibition of labelled glucocorticoid binding to the human recombinant GR.
The binding affinity of test compounds was determined using a FP binding assay using human recombinant GR (PanVera P2812) and a fluorescent labelled glucocorticoid ligand (Fluorome GS Red) (PanVera P2894). The presence of inhibitors prevents the formation of a GS Red/GR complex resulting in a decrease in the measured polarisation value. The change in polarisation value in the presence of test compounds is used to calculate the binding affinity of the compound for GR.
This assay was performed in 384 well, black, round-bottom, polypropylene micro titre plates in a final volume of 20 μl. The assay contained 5 μl 1 nM GR (final concentration), 5 μl 0.5 nM Fluorome GS Red (final concentration) in the presence of 10 μl test compounds. Positive control wells (high polarisation) receive, 10 μl 2% (v:v) DMSO vehicle (1% (v/v) final concentration)+5 μl 1 nM GR and 5 μl 0.5 nM Fluorome GS Red. […] Assay blank background wells (used for normalisation) receive 15 μl 1×GS screening buffer+5 μl GR.
For the IC50 determination (concentration of compound that displaces 50% of the bound GS Red), compounds were tested at eight different concentrations in duplicate in two independently performed experiments. Compounds were prepared as solubilised solids at 10 mM in DMSO. On the day of assay, an 8 point half-log serial dilution (55 μl DMSO+25 μl compound solution) was prepared. A 1:50 dilution (1 μl compound solution+49 μl 1×GR screening buffer) was prepared for each compound. The compounds were prepared at 2× final assay concentration.
The plates were mixed and incubated for 4 hour at room temperature. FP was measured using an Envision Excite plate reader with 535 nm excitation and 590 nm emission interference filters.
Milli-polarisation (mP) values were calculated using the below equation—
where S and P are assay blank background subtracted fluorescence units, G=G-factor (1.07).
Compound IC50 values were calculated by plotting a [compound] v. % inhibition curve and fitting the data to a 4-parameter logistic fit equation.
Reagents. 10×GR screening buffer (100 mM potassium phosphate pH 7.4, 200 mM Na2MoO4, 1 mM EDTA, 20% (v/v) DMSO). To prepare 1×GR screening buffer, combine 1 ml 10×GR screening buffer (PanVera P2814)+1 ml stabilising peptide (PanVera P2815)+7.95 ml 4° C. MQ water. Add 50 μl 1M DTT, vortex and place on ice until use.

[1] = molecular target: T2, GR (TAT induction in HepG2 cells) (Homo sapiens, UniProt P04150); assay: cell-based; details: read-out: GR functional Ki
T2 construct: host or cells: HepG2 (human hepatocellular carcinoma)
T2 sequence (P04150 1-777): T1 sequence (P04150 1-777)
Description: Glucocorticoid mediated activation of TAT occurs by transactivation of glucocorticoid response elements in the TAT promoter by glucocorticoid receptor-agonist complex.
TAT activity was measured as outlined in the literature by A. Ali et al., J. Med. Chem., 2004, 47, 2441-2452.
HepG2 cells were cultured using MEME media supplemented with 10% (v/v) foetal bovine serum; 2 mM L-glutamine and 1% (v/v) NEAA at 37° C., 5%/95% (v/v) CO2/air. The HepG2 cells were counted and adjusted to yield a density of 0.125×10^6 cells/ml in RPMI 1640 without phenol red, 10% (v/v) charcoal stripped FBS, 2 mM L-glutamine and seeded at 25,000 cells/well in 200 μl into 96 well, sterile, tissue culture micro titre plates, and incubated at 37° C., 5% CO2 for 24 hours
Growth media was removed and replaced with assay media {RPMI 1640 without phenol red, 2 mM L-glutamine+10 μM forskolin}. […] Compounds were serially half log diluted in 100% (v/v) dimethylsupfoxide from a 10 mM stock.
HepG2 cells were then lysed with 30 μl of cell lysis buffer containing a protease inhibitor cocktail for 15 minutes at 4° C. 155 μl of substrate mixture was then added containing 5.4 mM Tyrosine sodium salt, 10.8 mM alpha ketoglutarate and 0.06 mM pyridoxal 5′ phosphate in 0.1M potassium phosphate buffer (pH 7.4). After 2 hours incubation at 37° C. the reaction was terminated by the addition of 15 μl of 10M aqueous potassium hydroxide solution, and the plates incubated for a further 30 minutes at 37° C. The TAT activity product was measured by absorbance at λ 340 nm.
[compound] and fitting the data to a 4 parameter logistic equation.

| pKi (human recombinant GR) | pKi [1] | SMILES |
| --- | --- | --- |
| > 9.30 | < 7.00 | COC[C@]12Cc3cnn(-c4ccc(F)cc4)c3C=C1CCN(S(=O)(=O)c1ccc(N3CCC(C)(C)C3)cc1)C2 [Example 21, (R)-1-(4-Fluoro-phenyl)-6-[4-(3,3-dimethylpyrrolidin-1-yl)-benzenesulfonyl]-4a-methoxymethyl-4,4a,5,6,7,8-hexahydro-1H-1,2,6-triaza-cyclopenta[b]naphthalene] |
| > 9.30 | < 7.00 | COC[C@]12Cc3cnn(-c4ccc(F)cc4)c3C=C1CCN(S(=O)(=O)c1ccc(N3CCC(F)(F)C3)cc1)C2 [Example 16, (R)-1-(4-Fluoro-phenyl)-6-[4-(3,3-difluoropyrrolidin-1-yl)-benzenesulfonyl]-4a-methoxymethyl-4,4a,5,6,7,8-hexahydro-1H-1,2,6-triaza-cyclopenta[b]naphthalene] |
